US12091405B2, “Substituted pyrazole compounds as indoleamine 2,3-dioxygenase inhibitors” (Merck Sharp & Dohme LLC, priority 2018, dated 2024)

The molecules below were run against IDO1 (Homo sapiens, UniProt P14902) (assay: IDO1 Cellular Assay in HeLa Cells Stimulated with IFNγ). Conditions: IFNγ 100 ng/mL, 300 uM L-tryptophan, about 48 hours, fluorescence readout, read-out: IDO1 HELA Cell Assay, IC50.
Assay type: cell-based

Chain of IDO1 (P14902 whole entry): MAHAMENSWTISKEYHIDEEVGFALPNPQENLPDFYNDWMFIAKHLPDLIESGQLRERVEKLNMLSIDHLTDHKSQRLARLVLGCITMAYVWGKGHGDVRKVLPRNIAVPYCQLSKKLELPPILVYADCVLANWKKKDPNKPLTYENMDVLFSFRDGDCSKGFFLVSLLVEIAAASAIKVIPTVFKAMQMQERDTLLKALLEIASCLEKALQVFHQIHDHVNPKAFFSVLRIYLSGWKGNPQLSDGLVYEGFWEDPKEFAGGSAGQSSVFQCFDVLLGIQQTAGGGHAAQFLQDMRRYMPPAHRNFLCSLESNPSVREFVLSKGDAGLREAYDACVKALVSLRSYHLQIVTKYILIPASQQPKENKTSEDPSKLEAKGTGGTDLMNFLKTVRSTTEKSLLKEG

Structure (SMILES) | IC50
C[C@@H]1CN(C(=O)c2nn(CC(=O)N3CCC(c4ccc(C(F)(F)F)cc4F)CC3)c3c2CCC3)C[C@H](C)O1 [Example 147, 2-{3-[(2R,6S)-2,6-dimethylmorpholine-4-carbonyl]-5,6-dihydrocyclopenta[c]pyrazol-1(4H)-yl}-1-{4-[2-fluoro-4-(trifluoromethyl)phenyl]piperidin-1-yl}ethan-1-one] | 109 nM
C[C@@H]1CN(C(=O)c2nn(CC(=O)N3CCC(c4cc(F)c(F)cc4F)CC3)c3c2CCC3)C[C@H](C)O1 [Example 149, 2-{3-[(2R,6S)-2,6-dimethylmorpholine-4-carbonyl]-5,6-dihydrocyclopenta[c]pyrazol-1(4H)-yl}-1-[4-(2,4,5-trifluorophenyl)piperidin-1-yl]ethan-1-one] | 120 nM
C[C@@H]1CN(C(=O)c2nn(CC(=O)N3CCC(c4ccc(F)c(C(F)(F)F)c4)CC3)c3c2CCC3)C[C@H](C)O1 [Example 151, 2-{3-[(2R,6S)-2,6-dimethylmorpholine-4-carbonyl]-5,6-dihydrocyclopenta[c]pyrazol-1(4H)-yl}-1-{4-[4-fluoro-3-(trifluoromethyl)phenyl]piperidin-1-yl}ethan-1-one] | 126 nM
C[C@@H]1CN(C(=O)c2nn(CC(=O)N3CCC(c4c(F)ccc(F)c4F)CC3)c3c2CCC3)C[C@H](C)O1 [Example 152, 2-{3-[(2R,6S)-2,6-dimethylmorpholine-4-carbonyl]-5,6-dihydrocyclopenta[c]pyrazol-1(4H)-yl}-1-[4-(2,3,6-trifluorophenyl)piperidin-1-yl]ethan-1-one] | 126 nM
C[C@@H]1CN(C(=O)c2nn(CC(=O)N3CCC(c4cccc5c4OC(F)(F)O5)CC3)c3c2CCC3)C[C@H](C)O1 [Example 153, 1-[4-(2,2-difluoro-2H-1,3-benzodioxol-4-yl)piperidin-1-yl]-2-{3-[(2R,6S)-2,6-dimethylmorpholine-4-carbonyl]-5,6-dihydrocyclopenta[c]pyrazol-1(4H)-yl}ethan-1-one] | 138 nM
Cc1cc(C)cc(C2CCN(C(=O)Cn3nc(C(=O)N4C[C@@H](C)O[C@@H](C)C4)c4c3CCC4)CC2)c1 [Example 155, 2-{3-[(2R,6S)-2,6-dimethylmorpholine-4-carbonyl]-5,6-dihydrocyclopenta[c]pyrazol-1(4H)-yl}-1-[4-(3,5-dimethylphenyl)piperidin-1-yl]ethan-1-one] | 143 nM
COc1ccc(F)c(C2CCN(C(=O)Cn3nc(C(=O)N4C[C@@H](C)O[C@@H](C)C4)c4c3CCC4)CC2)c1 [Example 156, 2-{3-[(2R,6S)-2,6-dimethylmorpholine-4-carbonyl]-5,6-dihydrocyclopenta[c]pyrazol-1(4H)-yl}-1-[4-(2-fluoro-5-methoxyphenyl)piperidin-1-yl]ethan-1-one] | 149 nM
C[C@@H]1CN(C(=O)c2nn(CC(=O)N3CCC(c4ccc(C(F)(F)F)c(F)c4)CC3)c3c2CCC3)C[C@H](C)O1 [Example 161, 2-{3-[(2R,6S)-2,6-dimethylmorpholine-4-carbonyl]-5,6-dihydrocyclopenta[c]pyrazol-1(4H)-yl}-1-{4-[3-fluoro-4-(trifluoromethyl)phenyl]piperidin-1-yl}ethan-1-one] | 165 nM
C[C@@H]1CN(C(=O)c2nn(CC(=O)N3CCC(c4ccccc4OC(F)(F)F)CC3)c3c2CCC3)C[C@H](C)O1 [Example 163, 2-{3-[(2R,6S)-2,6-dimethylmorpholine-4-carbonyl]-5,6-dihydrocyclopenta[c]pyrazol-1(4H)-yl}-1-{4-[2-(trifluoromethoxy)phenyl]piperidin-1-yl}ethan-1-one] | 177 nM
C[C@@H]1CN(C(=O)c2nn(CC(=O)N3CCC(c4cccc(CC(F)(F)F)c4)CC3)c3c2CCC3)C[C@H](C)O1 [Example 164, 2-{3-[(2R,6S)-2,6-dimethylmorpholine-4-carbonyl]-5,6-dihydrocyclopenta[c]pyrazol-1(4H)-yl}-1-{4-[3-(2,2,2-trifluoroethyl)phenyl]piperidin-1-yl}ethan-1-one] | 206 nM

The next lines start with the values.

IC50 | Structure (SMILES)
107 nM | CCc1ccc(C2CCN(C(=O)Cn3nc(C(=O)N4C[C@@H](C)O[C@@H](C)C4)c4c3CCC4)CC2)cc1 [Example 146, 2-{3-[(2R,6S)-2,6-dimethylmorpholine-4-carbonyl]-5,6-dihydrocyclopenta[c]pyrazol-1(4H)-yl}-1-[4-(4-ethylphenyl)piperidin-1-yl]ethan-1-one]
117 nM | Cc1cc(Cl)cc(C2CCN(C(=O)Cn3nc(C(=O)N4C[C@@H](C)O[C@@H](C)C4)c4c3CCC4)CC2)c1 [Example 148, 1-[4-(3-chloro-5-methylphenyl)piperidin-1-yl]-2-{3-[(2R,6S)-2,6-dimethylmorpholine-4-carbonyl]-5,6-dihydrocyclopenta[c]pyrazol-1(4H)-yl}ethan-1-one]
122 nM | C[C@@H]1CN(C(=O)c2nn(CC(=O)N3CCC(c4cc(F)ccc4F)CC3)c3c2CCC3)C[C@H](C)O1 [Example 150, 1-[4-(2,5-difluorophenyl)piperidin-1-yl]-2-{3-[(2R,6S)-2,6-dimethylmorpholine-4-carbonyl]-5,6-dihydrocyclopenta[c]pyrazol-1(4H)-yl}ethan-1-one]
142 nM | C[C@@H]1CN(C(=O)c2nn(CC(=O)N3CCC(c4cc(F)c(F)cc4Cl)CC3)c3c2CCC3)C[C@H](C)O1 [Example 154, 1-[4-(2-chloro-4,5-difluorophenyl)piperidin-1-yl]-2-{3-[(2R,6S)-2,6-dimethylmorpholine-4-carbonyl]-5,6-dihydrocyclopenta[c]pyrazol-1(4H)-yl}ethan-1-one]
150 nM | C[C@@H]1CN(C(=O)c2nn(CC(=O)N3CCC(c4ccccc4Cl)CC3)c3c2CCC3)C[C@H](C)O1 [Example 157, 1-[4-(2-chlorophenyl)piperidin-1-yl]-2-{3-[(2R,6S)-2,6-dimethylmorpholine-4-carbonyl]-5,6-dihydrocyclopenta[c]pyrazol-1(4H)-yl}ethan-1-one]
153 nM | Cc1cccc(F)c1C1CCN(C(=O)Cn2nc(C(=O)N3C[C@@H](C)O[C@@H](C)C3)c3c2CCC3)CC1 [Example 158, 2-{3-[(2R,6S)-2,6-dimethylmorpholine-4-carbonyl]-5,6-dihydrocyclopenta[c]pyrazol-1(4H)-yl}-1-[4-(2-fluoro-6-methylphenyl)piperidin-1-yl]ethan-1-one]
156 nM | C[C@@H]1CN(C(=O)c2nn(CC(=O)N3CCC(c4cccc(C(C)(F)F)c4)CC3)c3c2CCC3)C[C@H](C)O1 [Example 159, 1-{4-[3-(1,1-difluoroethyl)phenyl]piperidin-1-yl}-2-{3-[(2R,6S)-2,6-dimethylmorpholine-4-carbonyl]-5,6-dihydrocyclopenta[c]pyrazol-1(4H)-yl}ethan-1-one]
162 nM | C[C@@H]1CN(C(=O)c2nn(CC(=O)N3CCC(c4cccc(OC(F)(F)F)c4)CC3)c3c2CCC3)C[C@H](C)O1 [Example 160, 2-{3-[(2R,6S)-2,6-dimethylmorpholine-4-carbonyl]-5,6-dihydrocyclopenta[c]pyrazol-1(4H)-yl}-1-{4-[3-(trifluoromethoxy)phenyl]piperidin-1-yl}ethan-1-one]
173 nM | Cc1cc(C(F)(F)F)ccc1C1CCN(C(=O)Cn2nc(C(=O)N3C[C@@H](C)O[C@@H](C)C3)c3c2CCC3)CC1 [Example 162, 2-{3-[(2R,6S)-2,6-dimethylmorpholine-4-carbonyl]-5,6-dihydrocyclopenta[c]pyrazol-1(4H)-yl}-1-{4-[2-methyl-4-(trifluoromethyl)phenyl]piperidin-1-yl}ethan-1-one]
234 nM | C[C@@H]1CN(C(=O)c2nn(CC(=O)N3CCC(c4ccc(F)cc4F)CC3)c3c2CCC3)C[C@H](C)O1 [Example 165, 1-[4-(2,4-difluorophenyl)piperidin-1-yl]-2-{3-[(2R,6S)-2,6-dimethylmorpholine-4-carbonyl]-5,6-dihydrocyclopenta[c]pyrazol-1(4H)-yl}ethan-1-one]
261 nM | C[C@@H]1CN(C(=O)c2nn(CC(=O)N3CCC(c4cc(Cl)ccc4F)CC3)c3c2CCC3)C[C@H](C)O1 [Example 166, 1-[4-(5-chloro-2-fluorophenyl)piperidin-1-yl]-2-{3-[(2R,6S)-2,6-dimethylmorpholine-4-carbonyl]-5,6-dihydrocyclopenta[c]pyrazol-1(4H)-yl}ethan-1-one]
274 nM | C[C@@H]1CN(C(=O)c2nn(CC(=O)N3CCC(c4cc(Cl)cc(Cl)c4)CC3)c3c2CCC3)C[C@H](C)O1 [Example 167, 1-[4-(3,5-dichlorophenyl)piperidin-1-yl]-2-{3-[(2R,6S)-2,6-dimethylmorpholine-4-carbonyl]-5,6-dihydrocyclopenta[c]pyrazol-1(4H)-yl}ethan-1-one]
296 nM | CC(C)c1ccc(C2CCN(C(=O)Cn3nc(C(=O)N4C[C@@H](C)O[C@@H](C)C4)c4c3CCC4)CC2)cc1 [Example 168, 2-{3-[(2R,6S)-2,6-dimethylmorpholine-4-carbonyl]-5,6-dihydrocyclopenta[c]pyrazol-1(4H)-yl}-1-{4-[4-(propan-2-yl)phenyl]piperidin-1-yl}ethan-1-one]
329 nM | C[C@@H]1CN(C(=O)c2nn(CC(=O)N3CCC(c4ccc(C(F)(F)F)c(Cl)c4)CC3)c3c2CCC3)C[C@H](C)O1 [Example 169, 1-{4-[3-chloro-4-(trifluoromethyl)phenyl]piperidin-1-yl}-2-{3-[(2R,6S)-2,6-dimethylmorpholine-4-carbonyl]-5,6-dihydrocyclopenta[c]pyrazol-1(4H)-yl}ethan-1-one]
361 nM | COc1ccc(Cl)cc1C1CCN(C(=O)Cn2nc(C(=O)N3C[C@@H](C)O[C@@H](C)C3)c3c2CCC3)CC1 [Example 170, 1-[4-(5-chloro-2-methoxyphenyl)piperidin-1-yl]-2-{3-[(2R,6S)-2,6-dimethylmorpholine-4-carbonyl]-5,6-dihydrocyclopenta[c]pyrazol-1(4H)-yl}ethan-1-one]
440 nM | C[C@@H]1CN(C(=O)c2nn(CC(=O)N3CCC(c4cccc5cnccc45)CC3)c3c2CCC3)C[C@H](C)O1 [Example 171, 2-{3-[(2R,6S)-2,6-dimethylmorpholine-4-carbonyl]-5,6-dihydrocyclopenta[c]pyrazol-1(4H)-yl}-1-[4-(isoquinolin-5-yl)piperidin-1-yl]ethan-1-one]
